# Test: Inhibition of ROCK-2 in human GTM3 cells measured up to 2 days by cell impedance assay
row,SMILES,EC50 [nM]
1,CN(C)CC(O)CN1CCN(c2nc(-c3ccncc3)cnc2N2CCCC2)CC1 (configuration not stated),1500
2,CC(=O)NCC(O)CN1CCN(c2nc(-c3ccncc3)cnc2N2CCCC2)CC1 (configuration not stated),1700
3,CC(=O)NCCCN1CCN(c2nc(-c3ccncc3)cnc2N2CCCC2)CC1,760
4,c1nc(N2CCCC2)c(N2CCCNCC2)nc1-c1cc2cn[nH]c2cn1,416
5,OCCN1CCN(c2nc(-c3ccncc3)cnc2N2CCCC2)CC1 [2-(4-(6-(pyridin-4-yl)-3-(pyrrolidin-1-yl)pyrazin-2-yl)piperazin-1-yl)ethanol],680

# The next compounds have a lower EC50 than those just listed; values first:
row,EC50 [nM],SMILES
1,380,Cc1n[nH]c2ccc(-c3cncc(N4CCCNCC4)n3)cc12
2,260,c1cc2[nH]ncc2cc1-c1cncc(N2CCCNCC2)n1

# — BindingDB's records for doi:10.1016/j.bmcl.2014.03.017 (Alcon Laboratories, 2014)
